Laboratory results as given in patent US11878970B2, “Allosteric chromenone inhibitors of phosphoinositide 3-kinase (PI3K) for the treatment of disease” (Petra Pharma Corporation, priority 2021, dated 2024).

Assays:
[1] = biological target: T1, PI3K-α (PIK3CA) wild-type (WT), p110α/p85α complex (Homo sapiens, UniProt P42336); test: PI3K-alpha kinase (PIK3CA) biochemical activity, ADP-Glo, wild-type; conditions: Soy PI lipid substrate
T1 construct: Recombinant, catalytically active human full length PIK3KA Wild-type and H1047R mutant; 6×His (N); purchased EMD Millipore Sigma 14-602M
Summary of the method: (§1)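 ADP formation measured by ADP-Glo luminescence after reaction at 27 °C to about 10% ATP turnover, using 20 uM ATP, 50 uM PIP2diC8 or soy PI lipid, HEPES pH 7.4 with MgCl2. Enzyme (1-5 nM WT or H1047R p110α/p85α) and compound preincubated 1 h first; 10-point 1:3 curves fitted four-parameter for IC50.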

[2] = biological target: T2, PI3K-α (PIK3CA) H1047R mutant, p110α/p85α complex (Homo sapiens, UniProt P42336, H1047R); test: PI3K-alpha kinase (PIK3CA) biochemical activity, ADP-Glo, H1047R mutant; conditions: Soy PI lipid substrate
T2 construct: Recombinant, catalytically active human full length PIK3KA Wild-type and H1047R mutant; 6×His (N); purchased EMD Millipore Sigma 14-792M
T2 sequence (P42336 whole entry H1047R): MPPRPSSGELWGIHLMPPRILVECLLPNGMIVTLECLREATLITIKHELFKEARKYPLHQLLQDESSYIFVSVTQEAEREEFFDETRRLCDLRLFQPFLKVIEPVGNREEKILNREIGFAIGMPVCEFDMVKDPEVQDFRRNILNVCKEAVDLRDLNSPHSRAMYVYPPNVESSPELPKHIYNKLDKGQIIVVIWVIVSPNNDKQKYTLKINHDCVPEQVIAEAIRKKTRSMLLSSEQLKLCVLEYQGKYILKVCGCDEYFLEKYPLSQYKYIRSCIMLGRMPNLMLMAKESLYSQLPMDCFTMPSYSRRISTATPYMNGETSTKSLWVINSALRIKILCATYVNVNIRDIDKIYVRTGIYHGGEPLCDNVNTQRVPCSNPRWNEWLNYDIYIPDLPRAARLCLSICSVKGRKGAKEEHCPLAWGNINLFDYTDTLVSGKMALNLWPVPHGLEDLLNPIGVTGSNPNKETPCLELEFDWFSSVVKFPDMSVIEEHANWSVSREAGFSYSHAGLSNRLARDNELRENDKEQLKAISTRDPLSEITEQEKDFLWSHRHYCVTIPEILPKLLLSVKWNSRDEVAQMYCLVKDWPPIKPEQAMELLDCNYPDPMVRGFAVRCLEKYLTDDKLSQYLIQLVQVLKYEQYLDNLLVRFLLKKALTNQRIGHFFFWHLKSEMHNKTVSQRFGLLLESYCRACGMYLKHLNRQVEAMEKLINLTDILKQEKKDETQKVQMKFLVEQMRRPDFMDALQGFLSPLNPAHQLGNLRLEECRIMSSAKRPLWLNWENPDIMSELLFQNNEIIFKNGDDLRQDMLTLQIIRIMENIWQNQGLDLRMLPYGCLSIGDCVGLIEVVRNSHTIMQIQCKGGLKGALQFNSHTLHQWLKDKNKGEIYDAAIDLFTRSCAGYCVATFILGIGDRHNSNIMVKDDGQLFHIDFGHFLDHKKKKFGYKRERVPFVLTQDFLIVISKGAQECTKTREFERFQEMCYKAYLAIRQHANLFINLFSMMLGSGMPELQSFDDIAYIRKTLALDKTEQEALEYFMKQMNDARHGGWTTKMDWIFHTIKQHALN
T2 sequence (P27986 whole entry partner): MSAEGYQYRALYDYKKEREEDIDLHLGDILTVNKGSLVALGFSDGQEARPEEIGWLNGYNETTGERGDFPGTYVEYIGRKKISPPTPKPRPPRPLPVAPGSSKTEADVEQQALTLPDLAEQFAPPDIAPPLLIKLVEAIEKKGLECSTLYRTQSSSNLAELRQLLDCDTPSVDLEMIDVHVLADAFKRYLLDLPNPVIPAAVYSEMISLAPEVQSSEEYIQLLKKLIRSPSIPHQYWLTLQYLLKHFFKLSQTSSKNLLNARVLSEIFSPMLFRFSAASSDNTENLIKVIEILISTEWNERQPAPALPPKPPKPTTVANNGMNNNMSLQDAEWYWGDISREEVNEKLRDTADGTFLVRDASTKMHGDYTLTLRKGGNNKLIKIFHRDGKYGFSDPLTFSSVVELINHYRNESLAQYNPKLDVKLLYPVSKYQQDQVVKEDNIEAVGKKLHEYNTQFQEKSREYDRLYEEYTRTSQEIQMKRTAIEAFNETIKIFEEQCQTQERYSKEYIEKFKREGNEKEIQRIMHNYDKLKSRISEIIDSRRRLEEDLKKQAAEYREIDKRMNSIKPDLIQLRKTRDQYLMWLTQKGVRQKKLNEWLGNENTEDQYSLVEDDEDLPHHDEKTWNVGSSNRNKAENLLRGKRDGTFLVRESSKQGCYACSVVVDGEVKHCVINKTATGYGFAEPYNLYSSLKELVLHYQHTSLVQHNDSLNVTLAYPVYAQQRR
Summary of the method: as §1

[3] = biological target: PI3K-α (PIK3CA) in MDA-MB-453 cells (Homo sapiens, UniProt P42336); test: PI3K-alpha kinase (PIK3CA) in vitro cell based assay, MDA-MB-453 cells, SureFire Ultra AlphaLisa; conditions: read-out: PI3K-α (PIK3CA) in vitro cell based assay IC50
Sequence of PI3K-α (PIK3CA) in MDA-MB-453 cells (P27986 2-724): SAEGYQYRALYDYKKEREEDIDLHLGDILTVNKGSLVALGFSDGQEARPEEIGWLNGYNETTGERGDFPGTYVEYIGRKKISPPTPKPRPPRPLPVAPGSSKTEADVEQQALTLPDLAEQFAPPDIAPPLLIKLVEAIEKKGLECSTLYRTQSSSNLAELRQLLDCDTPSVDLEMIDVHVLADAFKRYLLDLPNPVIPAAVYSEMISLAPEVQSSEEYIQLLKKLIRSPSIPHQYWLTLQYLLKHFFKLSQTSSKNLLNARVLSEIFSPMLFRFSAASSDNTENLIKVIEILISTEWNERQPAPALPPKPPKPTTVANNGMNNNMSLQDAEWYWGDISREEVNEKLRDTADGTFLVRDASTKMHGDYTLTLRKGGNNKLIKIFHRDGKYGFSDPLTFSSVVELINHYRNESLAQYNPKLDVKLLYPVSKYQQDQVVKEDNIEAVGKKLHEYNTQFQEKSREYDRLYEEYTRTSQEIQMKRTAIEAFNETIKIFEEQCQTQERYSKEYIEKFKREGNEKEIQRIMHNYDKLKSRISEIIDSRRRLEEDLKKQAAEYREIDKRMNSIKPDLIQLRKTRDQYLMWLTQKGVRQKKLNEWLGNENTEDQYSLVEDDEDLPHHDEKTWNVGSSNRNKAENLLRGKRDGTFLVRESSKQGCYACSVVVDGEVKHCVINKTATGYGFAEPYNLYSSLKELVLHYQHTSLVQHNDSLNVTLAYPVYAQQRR
Sequence of PI3K-α (PIK3CA) in MDA-MB-453 cells (P42336 whole entry): as the sequence (P42336 whole entry H1047R) above, with R1047H counted along it
Summary of the method: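 Cells treated 3 h in serum-free MEM with 1 μg/mL insulin, 10-point 1:3 series in 0.3% DMSO, then lysed for SureFire Ultra AlphaLisa read-out. Inhibition normalized to DMSO (max) and 1 μM GDC-0032 (min); duplicate averages fitted by 4-parameter logistic for relative IC50.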

Row | Structure (SMILES) | IC50 [1] [µM] | IC50 [2] [µM] | IC50 [3] [µM]
1 | Cc1cc(C(C)Nc2ccc(Cl)nc2C(=O)O)c2oc(-c3cc(C)c4nn(C)cc4c3)cc(=O)c2c1 (single isomer, unassigned) [Example 188, 6-Chloro-3-[1-[2-(2,7-dimethylindazol-5-yl)-6-methyl-4-oxo-chromen-8-yl]ethylamino]pyridine-2-carboxylic acid] | 0.5 to 1 | < 0.5 | < 0.05
2 | Cc1cc([C@@H](C)Nc2ccc(Cl)nc2C(=O)O)c2oc(-c3cc4ccccc4[nH]3)c(C)c(=O)c2c1 [Example 196, 6-Chloro-3-[[(1R)-1-[2-(1H-indol-2-yl)-3,6-dimethyl-4-oxo-chromen-8-yl]ethyl]amino]pyridine-2-carboxylic acid] | 1 to 5 | < 0.5 | < 0.05
3 | Cc1cc(C(C)Nc2ccccc2C(=O)O)c2oc(-c3cccc4oc(C)nc34)cc(=O)c2c1 (single isomer, unassigned) [Example 117, 2-[1-[6-Methyl-2-(2-methyl-1,3-benzoxazol-4-yl)-4-oxo-chromen-8-yl]ethylamino]benzoic acid] | 1 to 5 | 0.5 to 1 | > 0.5
4 | Cc1cc(C(C)Nc2ccccc2C(=O)O)c2oc(-c3cc4cn(C)nc4cn3)cc(=O)c2c1 (single isomer, unassigned) [Example 160, 2-[1-[6-Methyl-2-(2-methylpyrazolo[3,4-c]pyridin-5-yl)-4-oxo-chromen-8-yl]ethylamino]benzoic acid] | 1 to 5 | < 0.5 | 0.05 to 0.1
5 | Cc1cc(C(C)Nc2ccccc2C(=O)O)c2oc(-c3cnc4c(c3)OCCO4)cc(=O)c2c1 (single isomer, unassigned) [Example 163, 2-[1-[2-(2,3-Dihydro-[1,4]dioxino[2,3-b]pyridin-7-yl)-6-methyl-4-oxo-chromen-8-yl]ethylamino]benzoic acid] | 5 to 10 | < 0.5 | 0.05 to 0.1
6 | Cc1cc(C(C)Nc2ccccc2C(=O)O)c2oc(-c3ccc4c(cnn4C)c3)cc(=O)c2c1 (single isomer, unassigned) [Example 26, 2-[1-[6-Methyl-2-(1-methylindazol-5-yl)-4-oxo-chromen-8-yl]ethylamino]benzoic acid] | < 0.5 | < 0.5 | < 0.05
7 | Cc1cc(C(C)Nc2ccccc2C(=O)O)c2oc(-n3ncc4c(C)cccc43)cc(=O)c2c1 (single isomer, unassigned) [Example 88, 2-[1-[6-Methyl-2-(4-methylindazol-1-yl)-4-oxo-chromen-8-yl]ethylamino]benzoic acid] | 0.5 to 1 | < 0.5 | 0.1 to 0.5
8 | Cc1cc(C(C)Nc2ccccc2C(=O)O)c2oc(-c3ccc4cc[nH]c4c3)cc(=O)c2c1 (stereo not drawn) [Example 18, 2-[1-[2-(1H-Indol-6-yl)-6-methyl-4-oxo-chromen-8-yl]ethylamino]benzoic acid] | 1 to 5 | < 0.5 | 0.1 to 0.5
9 | Cc1cc(C(C)Nc2ccc(Cl)nc2C(=O)O)c2oc(-c3nn(C)c4ccccc34)c(C)c(=O)c2c1 (single isomer, unassigned) [Example 170, 6-Chloro-3-[1-[3,6-dimethyl-2-(1-methylindazol-3-yl)-4-oxo-chromen-8-yl]ethylamino]pyridine-2-carboxylic acid] | < 0.5 | < 0.5 | < 0.05
10 | Cc1cc(C(C)Nc2ccccc2C(=O)O)c2oc(-c3cc(C)c4nn(C)cc4c3)cc(=O)c2c1 (single isomer, unassigned) [Example 126, 2-[1-[2-(2,7-Dimethylindazol-5-yl)-6-methyl-4-oxo-chromen-8-yl]ethylamino]benzoic acid] | 1 to 5 | < 0.5 | < 0.05
11 | Cc1cc(C(C)Nc2ccc(Cl)nc2C(=O)O)c2oc(-c3ccc4cc[nH]c4n3)cc(=O)c2c1 (stereo not drawn) [Example 195, 6-Chloro-3-[1-[6-methyl-4-oxo-2-(1H-pyrrolo[2,3-b]pyridin-6-yl)chromen-8-yl]ethylamino]pyridine-2-carboxylic acid] | 0.5 to 1 | < 0.5 | < 0.05

Results, then the molecule that gave them:

Row | IC50 [1] [µM] | IC50 [2] [µM] | IC50 [3] [µM] | Structure (SMILES)
12 | > 10 | 1 to 5 | 0.1 to 0.5 | Cc1cc([C@@H](C)Nc2cccnc2C(=O)O)c2oc(-c3cc(C)c4nn(C)cc4c3)cc(=O)c2c1 [Example 231, 3-[[(1R)-1-[2-(2,7-Dimethylindazol-5-yl)-6-methyl-4-oxo-chromen-8-yl]ethyl]amino]pyridine-2-carboxylic acid]
13 | < 0.5 | < 0.5 | < 0.05 | Cc1cc([C@@H](C)Nc2ccc(Br)nc2C(=O)O)c2oc(-c3ccc4nn(C)cc4c3)c(C)c(=O)c2c1 [Example 244, 6-Bromo-3-[[(1R)-1-[3,6-dimethyl-2-(2-methylindazol-5-yl)-4-oxo-chromen-8-yl]ethyl]amino]pyridine-2-carboxylic acid]
14 | < 0.5 | < 0.5 | < 0.05 | Cc1cc([C@@H](C)Nc2ccc(F)cc2C(=O)O)c2oc(-c3ccc4nn(C)cc4c3)c(C)c(=O)c2c1 [Example 253, 2-[[(1R)-1-[3,6-Dimethyl-2-(2-methylindazol-5-yl)-4-oxo-chromen-8-yl]ethyl]amino]-5-fluoro-benzoic acid]
15 | < 0.5 | < 0.5 | 0.05 to 0.1 | Cc1cc([C@@H](C)Nc2cccc(F)c2C(=O)O)c2oc(-c3nn(C)c4ccccc34)c(C)c(=O)c2c1 [Example 230, 2-[[(1R)-1-[3,6-Dimethyl-2-(1-methylindazol-3-yl)-4-oxo-chromen-8-yl]ethyl]amino]-6-fluoro-benzoic acid]
16 | 1 to 5 | 1 to 5 | 0.1 to 0.5 | Cc1cc([C@@H](C)Nc2ccc(C(F)(F)F)cc2C(=O)O)c2oc(-c3ccc4nc(C)sc4n3)c(C)c(=O)c2c1 [Example 234, 2-[[(1R)-1-[3,6-Dimethyl-2-(2-methylthiazolo[5,4-b]pyridin-5-yl)-4-oxo-chromen-8-yl]ethyl]amino]-5-(trifluoromethyl)benzoic acid]
17 | < 0.5 | < 0.5 | < 0.05 | Cc1cc([C@@H](C)Nc2ccc(Cl)nc2C(=O)O)c2oc(-c3cc4cccnc4[nH]3)c(C)c(=O)c2c1 [Example 247, 6-Chloro-3-[[(1R)-1-[3,6-dimethyl-4-oxo-2-(1H-pyrrolo[2,3-b]pyridin-2-yl)chromen-8-yl]ethyl]amino]pyridine-2-carboxylic acid]
18 | < 0.5 | < 0.5 | < 0.05 | Cc1cc(C(C)Nc2ccc(Cl)nc2C(=O)O)c2oc(-c3ccc4c(c3)c(C)nn4C)cc(=O)c2c1 (single isomer, unassigned) [Example 224, 6-Chloro-3-[1-[2-(1,3-dimethylindazol-5-yl)-6-methyl-4-oxo-chromen-8-yl]ethylamino]pyridine-2-carboxylic acid]
19 | 1 to 5 | 1 to 5 | 0.1 to 0.5 | Cc1cc([C@@H](C)Nc2cccnc2C(=O)O)c2oc(-c3ccc4nc(C)sc4n3)c(C)c(=O)c2c1 [Example 243, 3-[[(1R)-1-[3,6-Dimethyl-2-(2-methylthiazolo[5,4-b]pyridin-5-yl)-4-oxo-chromen-8-yl]ethyl]amino]pyridine-2-carboxylic acid]
